Data set [1] has as its system MCF-7 human mammary adenocarcinoma. The data set can be described thus: In vitro inhibition rate to tumor cells (MTT), MCF-7. The following applies: for inhibition at 50 µg/mL: Homo sapiens, MCF7, 50 μg/ml, read-out: inhibition rate, Results (%) MCF-7; for inhibition rate, Results (%) MCF-7: 50 μg/ml. Format: cell-based.
The test system of data set [2] is Bel-7402 human hepatic carcinoma. The data set can be described thus: In vitro inhibition rate to tumor cells (MTT), Bel-7402. Format: cell-based. The note with it: for inhibition at 50 µg/mL: Homo sapiens, Bel-7402, 50 μg/ml, read-out: inhibition rate, Results (%) Bel-7402; for inhibition rate, Results (%) Bel-7402: 50 μg/ml.
Data set [3] has as its system SMMC-7721 human hepatic carcinoma. The data set can be described thus: In vitro inhibition rate to tumor cells (MTT), SMMC-7721. Format: cell-based. The following applies: for inhibition at 50 µg/mL: Homo sapiens, SMMC-7721, 50 μg/ml, read-out: inhibition rate, Results (%) SMMC-7721; for inhibition rate, Results (%) SMMC-7721: 50 μg/ml.
Data set [4] deals with Hela human cervical carcinoma. Kind of data set: In vitro inhibition rate to tumor cells (MTT), Hela. Format: cell-based. The following applies: 50 μg/ml; for inhibition at 50 µg/mL: Homo sapiens, HeLa, read-out: inhibition rate, Results (%) Hela.
Data set [5] deals with U-937 human histocytic lymphoma. Kind of data set: In vitro inhibition rate to tumor cells (MTT), U-937. Format: cell-based. The following applies: for inhibition at 50 µg/mL: Homo sapiens, U-937, 50 μg/ml, read-out: inhibition rate, Results (%) U-937; for inhibition rate, Results (%) U-937: 50 μg/ml.
The subject of a further data set is Hepatitis B virus (HBV). It counts as cell-based. The note with it: 200 μg/ml.
In data set [6] the test system is A-549 human lung adenocarcinoma. Kind of data set: In vitro inhibition rate to tumor cells (MTT), A-549. It counts as cell-based. The following applies: for inhibition at 50 µg/mL: Homo sapiens, A549, 50 μg/ml, read-out: inhibition rate, Results (%) A-549; for inhibition rate, Results (%) A-549: 50 μg/ml.
Data set [7] has as its system HL-60 human promyelocytic leukemia. Kind of data set: In vitro inhibition rate to tumor cells (MTT), HL-60. Format: cell-based. The following applies: for inhibition at 50 µg/mL: Homo sapiens, HL-60, 50 μg/ml, read-out: inhibition rate, Results (%) HL-60; for inhibition rate, Results (%) HL-60: 50 μg/ml.
Data set [8] relates to LLC mouse Lewis lung carcinoma. The data set can be described thus: In vitro inhibition rate to tumor cells (MTT), LLC. The following applies: 50 μg/ml; for inhibition at 50 µg/mL: Mus musculus, Lewis lung carcinoma. Format: cell-based.
For a further data set, the system named is MDCK (dog kidney) cells. Kind of data set: Toxicity TC50 of the samples in MDCK cells (influenza screening). The following applies: concentration of 50% toxicity.
The next data set has as its system HepG2 cells. The data set can be described thus: Cell status of HepG2 cells treated with sample (HBV screening). The following applies: 200 μg/ml, HepG2, four days after infection. Format: cell-based.
For data set [9], the system named is U-937 human histocytic lymphoma. The data set can be described thus: In vitro anti-tumor IC50 (MTT), U-937. Format: cell-based. The note with it: Table 4. Here is the method:
(§1) (1) Single cell suspension was seeded into 96-well plates (the cells was diluted in the PRMI-1640 minimum medium to 3×10^4 cells/ml, […] diluted cells/well). […] The experiments were performed in quadruplicate.
(§2) (2) The medium was removed. Solutions of the anti-tumor agents (50 compounds) were prepared in a freshly prepared medium at serial concentrations. […] of the solution was added into each well. Incubation was continued for 48 hours.
(§3) (3) 20 ug of 2 mg/ml MTT was added into each well, and incubated for 4 hours.
(§4) (4) The medium was removed from the well. The microplates were swiftly turned down to throw-off the medium. […] of DMSO was added into each well, and vortexed at room temperature for 10 minutes.
(§5) (5) OD value (λ=570 nm) was measured with an Enzyme-Linked Detector.
(§6) (6) The graph of cell vitality was plotted, and IC50 was calculated.

Data set [10] has as its system Hela human cervical carcinoma. Kind of data set: In vitro anti-tumor IC50 (MTT), Hela. The following applies: Table 4. It counts as cell-based. On the procedure:
as §1, §2, §3, §4, §5, §6

In brackets after ≈: the same amount, converted by molar mass. Read-outs that look alike come from different tables or passages of the source.

The inhibition is the drop in the measured response relative to a control, in per cent.

Method for HepG2 cells: 1.5 Screening for the agents: The HepG2 cells were counted and 1.5×10^4 cells/well were seeded into a 96-well plate. After incubation overnight in an atmosphere of CO2 at 37° C., each of the experimental samples in a given concentration was added to the cells. After incubation at 37 °C for 24 hrs, the HepG2 treated with the samples were infected with vAcGFPHBVc of 100 MOI. A negative control and a positive control were also included. Four days after infection, the growth of the cells were observed, and the HBV e antigen in the supernatant was measured with the HBV e antigen diagnostic kit.

Regarding `C=C1CC2(OC)OC3(CC2C(C)C)C(C)CCC13` (centres unmarked) [Compound 25, Curcumol methyl ether], the inhibition at 50 µg/mL amounted to 9.53% in data set [1] (Table 1); 8.12% in [1] (Table 2 (repeated screening)); 5.68% in [2] (Table 1); 2.03% in [2] (Table 2 (repeated screening)); 0.24% in data set [3] (Table 1); 8.32% in data set [3] (Table 2 (repeated screening)). Moreover, the inhibition at 50 µg/mL in [4] (Table 1) worked out at 81.9%; in [4] (Table 2 (repeated screening)), 75.5%; in [5] (Table 1), 86.9%; in [5] (Table 2 (repeated screening)) it was 82.4%; in data set [6] (Table 1), 13.7%; in data set [6] (Table 2 (repeated screening)), 14.2%. The inhibition at 50 µg/mL in data set [7] (Table 1) was -2.63%; in data set [7] (Table 2 (repeated screening)), 1.23%; in data set [8] (Table 1), 4.18%; in data set [8] (Table 2 (repeated screening)), 1.02%. Besides, the “(Value of the positive control - Measured Value) Value of the positive control × 100%” value in the data set with Hepatitis B virus (HBV) (decrease of HBeAg relative to positive control) was −31.8206%. Moreover, the “OD450 of HBeAg” value with Hepatitis B virus (HBV) (supernatant four days after infection, positive control 1.917, negative 0.057) worked out at 2.527. Also, in the data set with MDCK (dog kidney) cells, the TC50 is more than 1000 µg/mL. Further, the Cell status entry with HepG2 cells is listed as “Poor”.
Consider `CCCCNC=C1CC2(O)OC3(CC2C(C)C)C(C)CCC13` (centres unmarked) [Compound 13, Curcumol n-butyl amine], for which the “inhibition rate, Results (%) MCF-7” value in [1] (Table 1) is 54.67%; in [1] (Table 2 (repeated screening)) it was 50.36%. In addition, the entries for the “inhibition rate, Results (%) Bel-7402” value in data set [2] (Table 1) and in data set [2] (Table 2 (repeated screening)) were 33.16% and 30.25%, respectively. In data set [9], the “IC50 (ug/ml) against tumor cell lines, U-937” value was 0.98 µg/mL (≈ 3.19 µM). Besides, the “inhibition rate, Results (%) SMMC-7721” value in data set [3] (Table 1) was found to be 3.71%; in [3] (Table 2 (repeated screening)), 0.23%. Moreover, the results for the “inhibition rate, Results (%) Hela” value in [4] (Table 1) and in data set [4] (Table 2 (repeated screening)) were 66.32% and 65.92%, respectively. Further, the “inhibition rate, Results (%) U-937” value in data set [5] (Table 1) is given as 51.10%; in data set [5] (Table 2 (repeated screening)), 45.10%. For the same molecule, the “inhibition rate, Results (%) A-549” value is 7.59% in [6] (Table 1) and 3.56% in data set [6] (Table 2 (repeated screening)). Moreover, the “inhibition rate, Results (%) HL-60” value in data set [7] (Table 1) is reported as 0.12%; in data set [7] (Table 2 (repeated screening)), 0.79%. Also, in data set [10], the “IC50 (ug/ml) against tumor cell lines, Hela” value came to 1.6 µg/mL (≈ 5.2 µM). Also, the “inhibition rate, Results (%) LLC” value in data set [8] (Table 1) is reported as 0.24%; in data set [8] (Table 2 (repeated screening)), 1.32%.

These data come from patent publication US7700584B2 (Hangzhou Minsheng Pharmaceuticals Co., Ltd., priority 2004, dated 2010).
